# The source made the active and inactive calls. The calls are words filed in the database; no cut-off is given here.
# Legend:
# A2780 [1] = experiment: Inhibition of colony formation in human A2780 cells at upto 500 nM incubated for 14 days by crystal violet staining based analysis; assay type: functional, cell-based; settings: time 14.0 day
# A2780 [2] = experiment: Induction of apoptosis in human A2780 cells assessed as early apoptotic cells at 50 nM incubated for 96 hrs by Annexin-V/FITC and PI staining based flow cytometry analysis (reference value: 14.14%); assay type: functional
# A2780 [3] = experiment: Induction of autophagy in human A2780 cells assessed as change in MDC labeled fluorescence at upto 500 nM measured after 96 hrs by microscopic analysis; assay type: functional, cell-based
# A2780 [4] = experiment: Antitumor activity against human A2780 cells xenografted in BALB/c nude mouse model assessed as reduction in NDUFB level at 100 mg/kg, po by immunoblotting analysis; assay type: functional, organism-based
# A2780 [5] = experiment: Inhibition of colony formation in human A2780 cells assessed as decrease in colony quantity at 10 nM incubated for 14 days by crystal violet staining based analysis; assay type: functional, cell-based; settings: time 14.0 day
# A2780 [6] = experiment: Inhibition of MT-ND3 expression in human A2780 cells at 100 nM incubated for 12 hrs by RNA sequencing analysis; assay type: functional, cell-based
# [7] = Half life in ICR mouse at 1 mg/kg, iv measured upto 24 hrs by LC-MS/MS analysis; assay type: ADME, organism-based; settings: in vivo
# A2780 [8] = experiment: Effect on beta-actin mRNA level in human A2780 cells by RT-qPCR analysis; assay type: functional, cell-based
# [9] = AUC (0 to t) in ICR mouse at 1 mg/kg, iv measured upto 24 hrs by LC-MS/MS analysis; assay type: ADME, organism-based; set-up: time < 24 hrs, dose 1 mg/kg, route iv; settings: in vivo
# [10] = Clearance in ICR mouse at 1 mg/kg, iv measured upto 24 hrs by LC-MS/MS analysis; assay type: ADME, organism-based; settings: in vivo
# A2780 [11] = experiment: Inhibition of mitochondrial transcript in human A2780 cells assessed as decrease in CYTB expression by RT-qPCR analysis; assay type: functional, cell-based
# A2780 [12] = experiment: Inhibition of MT-CO2 expression in human A2780 cells at 100 nM incubated for 12 hrs by RNA sequencing analysis; assay type: functional, cell-based
# A2780 [13] = experiment: Inhibition of MT-ND2 expression in human A2780 cells at 100 nM incubated for 12 hrs by RNA sequencing analysis; assay type: functional, cell-based
# [14] = Solubility in PBS at pH 7.4; assay type: physicochemical
# A2780 [15] = experiment: Inhibition of mitochondrial transcript in human A2780 cells incubated for 12 hrs followed by compound removal and measured after 12 hrs by RT-qPCR analysis; assay type: functional, cell-based
# A2780 [16] = experiment: Inhibition of colony formation in human A2780 cells assessed as appearance of smaller colonies at upto 500 nM incubated for 14 days by crystal violet staining based analysis; assay type: functional, cell-based; settings: time 14.0 day
# A2780 [17] = experiment: Induction of mitochondrial membrane potential changes in human A2780 cells assessed as increase in Q3 phase at 0 to 5 uM measured after 96 hrs by flow cytometry analysis; assay type: functional, cell-based; settings: dose 0-5 µM
# A2780 [18] = experiment: Antitumor activity against human A2780 cells xenografted in BALB/c nude mouse model assessed as reduction in tumor weight at 100 mg/kg, po administered daily and measured after 27 days relative to control; assay type: functional; set-up: scale not given: the % may be the effect or the level left; settings: time 27 day
# A2780 [19] = experiment: Inhibition of mitochondrial transcript in human A2780 cells assessed as decrease in ND1 expression by RT-qPCR analysis; assay type: functional, cell-based
# A2780 [20] = experiment: Antitumor activity against human A2780 cells xenografted in BALB/c nude mouse model assessed as reduction in mitochondrial DNA transcript level at 50 to 100 mg/kg, po administered daily; assay type: functional, organism-based; settings: dose 50-100 mg/kg
# A2780 [21] = experiment: Inhibition of colony formation in human A2780 cells assessed as decrease in size of colonies at 10 nM incubated for 14 days by crystal violet staining based analysis; assay type: functional, cell-based; settings: time 14.0 day
# [22] = Half life in ICR mouse at 10 mg/kg, po measured upto 24 hrs by LC-MS/MS analysis; assay type: ADME, organism-based; settings: in vivo
# [23] = Toxicity in Balb/c mouse assessed as effect on body weight loss at 50 to 100 mg/kg, po measured after 27 days; assay type: organism-based; settings: in vivo, 648 h, dose 50-100 mg/kg, time 27 day
# [24] = Volume of distribution at steady state in ICR mouse at 1 mg/kg, iv measured upto 24 hrs by LC-MS/MS analysis; assay type: ADME, organism-based; settings: in vivo, read-out: Vdss
# A2780 [25] = experiment: Induction of apoptosis in human A2780 cells assessed as early apoptotic cells at 100 nM incubated for 96 hrs by Annexin-V/FITC and PI staining based flow cytometry analysis (reference value: 14.14%); assay type: functional
# DLD-1 = experiment: Antiproliferative activity against human DLD-1 cells incubated for 168 hrs by SRB method; assay type: functional, cell-based; settings: DLD-1, 168 h
# A2780 [26] = experiment: Inhibition of MT-ATP6 expression in human A2780 cells at 100 nM incubated for 12 hrs by RNA sequencing analysis; assay type: functional, cell-based
# [27] = Apparent permeability across apical to basolateral side in human Caco-2 cells at 3 uM incubated for 2 hrs by LC-MS/MS analysis; assay type: ADME, cell-based
# [28] = Antiproliferative activity against human PBMC cells incubated for 168 hrs by SRB method; assay type: functional, cell-based
# Cytochrome P450 2C9 = Cytochrome P450 2C9 (Homo sapiens, UniProt P11712); experiment: Inhibition of CYP2C9 (unknown origin) using diclofenac as substrate in presence of NADPH by LC/MS/MS analysis; assay type: ADME
# [29] = Oral bioavailability in ICR mouse at 10 mg/kg measured upto 24 hrs by LC-MS/MS analysis; assay type: ADME, organism-based; settings: in vivo
# A2780 [30] = experiment: Inhibition of mitochondrial transcript in human A2780 cells assessed as decrease in COX1 expression by RT-qPCR analysis; assay type: functional, cell-based
# A2780 [31] = experiment: Inhibition of MT-ND5 expression in human A2780 cells at 100 nM incubated for 12 hrs by RNA sequencing analysis; assay type: functional, cell-based
# [32] = MRT in ICR mouse at 1 mg/kg, iv measured upto 24 hrs by LC-MS/MS analysis; assay type: ADME, organism-based; settings: in vivo
# A2780 [33] = experiment: Antitumor activity against human A2780 cells xenografted in BALB/c nude mouse model assessed as decrease in tumor volume administered po daily and measured after 27 days; assay type: functional, organism-based; settings: dose 50-100 mg/kg, time 27.0 day
# A2780 [34] = experiment: Effect on cellular senescence in human A2780 cells at 0.05 to 1 uM measured after 96 hrs by beta-galactosidase staining based analysis; assay type: functional, cell-based; settings: dose 0.05-1 µM
# A2780 [35] = experiment: Antitumor activity against human A2780 cells xenografted in BALB/c nude mouse model assessed as reduction in […] level at 100 mg/kg, po by immunoblotting analysis; assay type: functional, organism-based
# A2780 [36] = experiment: Antitumor activity against human A2780 cells xenografted in BALB/c nude mouse model assessed as reduction in beta-actin level at 100 mg/kg, po by immunoblotting analysis; assay type: functional, organism-based
# A2780 [37] = experiment: Induction of cell cycle arrest in human A2780 cells assessed as accumulation of cells at G2 phase at 200 nM measured after 96 hrs by PI staining based flow cytometry analysis (reference value: 4.49%); assay type: functional
# [38] = AUC (0 to infinity) in ICR mouse at 10 mg/kg, po measured upto 24 hrs by LC-MS/MS analysis; assay type: ADME, organism-based; set-up: time < 24 hrs, dose 10 mg/kg, route po; settings: in vivo
# NCI-H1975 = experiment: Antiproliferative activity against human NCI-H1975 cells incubated for 168 hrs by SRB method; assay type: functional, cell-based; settings: NCI-H1975, 168 h
# Cytochrome P450 2C9, sequence (P11712 whole entry): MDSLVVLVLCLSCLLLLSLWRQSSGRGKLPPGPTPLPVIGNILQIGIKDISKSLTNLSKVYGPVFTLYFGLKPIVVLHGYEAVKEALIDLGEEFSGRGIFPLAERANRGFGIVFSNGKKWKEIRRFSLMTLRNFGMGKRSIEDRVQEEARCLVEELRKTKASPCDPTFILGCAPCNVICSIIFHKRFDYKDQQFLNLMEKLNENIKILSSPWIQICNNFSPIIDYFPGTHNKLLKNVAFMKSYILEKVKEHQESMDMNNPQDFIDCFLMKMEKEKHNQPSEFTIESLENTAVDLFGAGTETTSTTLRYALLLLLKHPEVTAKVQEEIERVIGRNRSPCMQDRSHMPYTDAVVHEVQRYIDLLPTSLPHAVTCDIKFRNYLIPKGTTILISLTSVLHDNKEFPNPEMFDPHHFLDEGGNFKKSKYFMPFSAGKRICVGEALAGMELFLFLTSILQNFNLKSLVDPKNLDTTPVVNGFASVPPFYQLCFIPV
smiles,measurement,setting,value
Cc1ccc(-c2cc(=O)oc3cc(O[C@H](C)C(=O)N4CC5CCC(C4)N5C)ccc23)c(C)c1,inhibition,A2780 [1],Active
same,Activity,A2780 [2],2.22%
same,Activity,A2780 [3],inactive
same,Activity,A2780 [4],Active
same,inhibition,A2780 [5],Active
same,inhibition,A2780 [6],Active
same,half-life,[7],3.12 h
same,Activity,A2780 [8],inactive
same,AUC(0-t) at 24 h,[9],424 ng·h/mL
same,clearance,[10],38.2 mL/min/kg
same,inhibition,A2780 [11],Active
same,inhibition,A2780 [12],Active
same,inhibition,A2780 [13],Active
same,solubility,[14],226 µg/mL
same,inhibition,A2780 [15],inactive
same,inhibition,A2780 [16],Active
same,Activity,A2780 [17],inactive
same,Activity,A2780 [18],68.66%
same,inhibition,A2780 [19],Active
same,Activity,A2780 [20],Active
same,inhibition,A2780 [21],Active
same,half-life,[22],2.3 h
same,Activity,[23],Non-Toxic
same,Vd,[24],6.4 L/kg
same,Activity,A2780 [25],0.28%
same,IC50,DLD-1,69 nM
same,inhibition,A2780 [26],Active
same,"Papp A→B at 2 h, 3 µM",[27],6.93 ×10⁻⁶ cm/s
same,IC50,[28],> 50000 nM
same,IC50,Cytochrome P450 2C9,34700 nM
same,bioavailability,[29],43.2%
same,inhibition,A2780 [30],Active
same,inhibition,A2780 [31],Active
same,MRT,[32],2.66 h
same,Activity,A2780 [33],Dose-Dependent Effect
same,Activity,A2780 [34],Active
same,Activity,A2780 [35],Active
same,Activity,A2780 [36],Active
same,Activity,A2780 [37],3.16%
same,AUC(0-inf),[38],1900 ng·h/mL
same,IC50,NCI-H1975,108 nM

# — ChEMBL document CHEMBL5380844, “Discovery of a Novel, Potent, Orally Active, and Safe Inhibitor Targeting Human Mitochondrial RNA Polymerase” (J Med Chem, 2023)
